Results: BindingDB's records for patent US20250313563 (The Broad Institute, 2025)
Several values for one entry are separate records, joined by “and”; a condition that tells them apart may be missing. Equal values may be shown once.

How the values were obtained:
[1] = target: Glycogen synthase kinase-3 alpha (Homo sapiens, UniProt P49840); assay: TR-FRET Assay
Method in brief: (§1)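 TR-FRET readout: streptavidin-d2 (40 nM in added detection mix) plus Tb-anti-pSer641 Ab (2 nM in mix). Steps were 30 min compound preincubation, kinase reaction, then EDTA stop.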

[2] = target: Glycogen synthase kinase-3 beta (Homo sapiens, UniProt P49841); assay: TR-FRET Assay
Glycogen synthase kinase-3 beta, sequence (P49841 whole entry): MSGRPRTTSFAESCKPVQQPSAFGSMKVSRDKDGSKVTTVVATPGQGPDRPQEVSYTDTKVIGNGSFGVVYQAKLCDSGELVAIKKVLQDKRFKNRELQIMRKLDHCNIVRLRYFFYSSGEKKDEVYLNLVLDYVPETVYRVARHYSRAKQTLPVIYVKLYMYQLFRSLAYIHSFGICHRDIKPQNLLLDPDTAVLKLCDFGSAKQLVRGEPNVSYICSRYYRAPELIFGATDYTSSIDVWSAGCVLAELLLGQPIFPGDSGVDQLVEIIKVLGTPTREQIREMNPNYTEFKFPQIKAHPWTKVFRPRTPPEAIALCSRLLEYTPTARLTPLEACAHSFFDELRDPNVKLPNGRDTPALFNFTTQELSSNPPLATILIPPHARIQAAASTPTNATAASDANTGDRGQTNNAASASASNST
Method in brief: as §1

Glycogen synthase kinase-3 alpha, sequence (P49840 whole entry): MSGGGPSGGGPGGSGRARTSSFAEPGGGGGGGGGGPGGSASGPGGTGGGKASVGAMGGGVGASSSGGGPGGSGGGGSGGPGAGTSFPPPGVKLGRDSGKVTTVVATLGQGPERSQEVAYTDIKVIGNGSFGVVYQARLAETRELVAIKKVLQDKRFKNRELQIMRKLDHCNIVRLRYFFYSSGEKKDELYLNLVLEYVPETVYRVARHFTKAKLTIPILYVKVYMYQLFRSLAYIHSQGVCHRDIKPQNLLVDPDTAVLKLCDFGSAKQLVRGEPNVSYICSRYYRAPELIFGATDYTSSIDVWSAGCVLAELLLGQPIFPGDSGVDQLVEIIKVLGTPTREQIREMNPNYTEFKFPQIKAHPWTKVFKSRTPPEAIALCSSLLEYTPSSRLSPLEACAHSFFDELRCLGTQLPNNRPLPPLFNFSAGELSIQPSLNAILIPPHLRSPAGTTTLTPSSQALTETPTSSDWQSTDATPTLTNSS

## CC[C@]1(c2cccc(-c3ccnc(C)c3)c2)C2=CN=NC2NC2=C1C(=O)N[C@@]1(CCOC1)C2 (some centres not stated) [US20250313563, Compound 948140]
[1]
  IC50: < 100 nM
[2]
  IC50: 100 to 1000 nM

## CC1(C)CC(=O)C2=C(C1)NC1=C(CN=N1)C2(C)c1cc(Cl)ccc1Cl (configuration not stated) [US20250313563, Compound 806605]
[1]
  IC50: 1000 to 5000 nM
[2]
  IC50: > 5000 nM

## CCC1(c2cccc(-c3ccncc3F)c2)C2=C(CC(C)(C)NC2=O)NC2N=NC(C)=C21 (configuration not stated) [US20250313563, Compound 945722]
[1]
  IC50: < 100 nM
[2]
  IC50: < 100 nM

## CC[C@]1(c2cccc(C(F)(F)F)c2)C2=CN=NC2NC2=C1C(=O)N(c1cc(C)n(C)n1)CC2 (some centres not stated) [US20250313563, Compound 951939]
[1]
  IC50: < 100 nM
[2]
  IC50: 100 to 1000 nM

## CC1(C)CC(=O)C2=C(C1)NC1=C(CN=N1)[C@@]21CCN(S(C)(=O)=O)C1 [US20250313563, Compound 942462]
[1]
  IC50: < 100 nM
[2]
  IC50: < 100 nM

## CCC1(c2cccc(N3CCC[C@@H]3C)c2)C2=CN=NC2NC2=C1C(=O)CC(C)(C)C2 (some centres not stated) [US20250313563, Compound 885188]
[1]
  IC50: 100 to 1000 nM
[2]
  IC50: 100 to 1000 nM

## CC1N=NC2=C1C(C)(c1cccc(C(F)(F)F)c1)C1=C(CC(C)(C)CC1=O)N2 (configuration not stated) [US20250313563, Compound 811556]
[1]
  IC50: < 100 nM
[2]
  IC50: < 100 nM

## Cc1cc([C@H]2CC[C@@]3(CC2)C2=C(N=NC2)NC2=C3C(=O)CC(C)(C)C2)ccn1 [US20250313563, Compound 948416]
[1]
  IC50: < 100 nM
[2]
  IC50: 100 to 1000 nM

## CC1(C)CC(=O)C2=C(C1)NC1=C(CN=N1)[C@@]21CCOC2(CCC2)C1 [US20250313563, Compound 897755]
[1]
  IC50: 1000 to 5000 nM
[2]
  IC50: 1000 to 5000 nM

## CC[C@@]1(c2cccc(Oc3ncccn3)c2)C2=C(CC(C)(C)NC2=O)NC2N=NC(Cl)=C21 (some centres not stated) [US20250313563, Compound 951605]
[1]
  IC50: 1000 to 5000 nM
[2]
  IC50: > 5000 nM

## CC[C@]1(c2cccc(-c3cn(C)nc3C)c2)C2=CN=NC2NC2=C1C(=O)NC1(CCCC1)C2 (some centres not stated) [US20250313563, Compound 950252]
[1]
  IC50: < 100 nM
[2]
  IC50: < 100 nM and 1000 to 5000 nM

## COc1ccc(F)c(S(=O)(=O)N2CCC3(CC2)C2=C(N=NC2)NC2=C3C(=O)CC(C)(C)C2)c1 [US20250313563, Compound 945665]
[1]
  IC50: < 100 nM
[2]
  IC50: < 100 nM

## CC1CC(C(=O)N2CC3(C2)CC2(CO3)C3=C(N=NC3)NC3=C2C(=O)CC(C)(C)C3)C1 (configuration not stated) [US20250313563, Compound 947266]
[1]
  IC50: < 100 nM
[2]
  IC50: < 100 nM

## CC(C)(C)CC1N=NC2=C1C1(CN(S(=O)(=O)CC3CC3)C1)C1=C(CC3(CCC3)CC1=O)N2 (configuration not stated) [US20250313563, Compound 107829]
[1]
  IC50: 1000 to 5000 nM
[2]
  IC50: 100 to 1000 nM

## CCC1(c2cccc(N(C)c3cc(C)cc(C)n3)c2)C2=CN=NC2NC2=C1C(=O)CC(C)(C)C2 (configuration not stated) [US20250313563, Compound 943538]
[1]
  IC50: < 100 nM
[2]
  IC50: 100 to 1000 nM

## CCC1(c2cccc(-c3cncn3C)c2)C2=C(CC(C)(C)CC2=O)NC2N=NC(C)=C21 (configuration not stated) [US20250313563, Compound 884001]
[1]
  IC50: < 100 nM
[2]
  IC50: < 100 nM

## CC1(C)CC(=O)C2=C(C1)NC1=C(CN=N1)C21CCN(c2ccncn2)CC1 [US20250313563, Compound 874529]
[1]
  IC50: 100 to 1000 nM
[2]
  IC50: 1000 to 5000 nM

## CC1CC(C(=O)N2CC3(C2)C[C@]2(CO3)C3=C(N=NC3)NC3=C2C(=O)CC(C)(C)C3)C1 (some centres not stated) [US20250313563, Compound 947732]
[1]
  IC50: 100 to 1000 nM
[2]
  IC50: 1000 to 5000 nM

## CC[C@@]1(c2cccc(-c3cnn(Cc4ccc(OC)cc4)c3)c2)C2=CN=NC2NC2=C1C(=O)NC(C)(C)C2 (some centres not stated) [US20250313563, Compound 951838]
[1]
  IC50: 100 to 1000 nM
[2]
  IC50: 1000 to 5000 nM

## Cn1nccc1-c1cccc2c1CCC[C@@]21C2=CN=NC2NC2=C1C(=O)CC(C)(C)C2 (some centres not stated) [US20250313563, Compound 945551]
[1]
  IC50: < 100 nM
[2]
  IC50: < 100 nM

## O=C1CC(C(F)(F)F)CC2=C1C1(CCOCC1)C1=C(N=NC1)N2 (configuration not stated) [US20250313563, Compound 889572]
[1]
  IC50: 100 to 1000 nM
[2]
  IC50: 100 to 1000 nM

## CC[C@@]1(c2cccc(-c3ccnn3C3CC3(F)F)c2)C2=CN=NC2NC2=C1C(=O)NC(C)(C)C2 (some centres not stated) [US20250313563, Compound 950824]
[1]
  IC50: < 100 nM and 100 to 1000 nM
[2]
  IC50: < 100 nM and 100 to 1000 nM

## CC[C@]1(c2cccc(-c3ccnc4cc(Cl)c(C)cc34)c2)C2=CN=NC2NC2=C1C(=O)NC(C)(C)C2 (some centres not stated) [US20250313563, Compound 948645]
[1]
  IC50: 100 to 1000 nM
[2]
  IC50: > 5000 nM

## CCC1(c2cccc(-c3ccnn3C)c2)C2=C(CC(C)(C)CC2=O)NC2N=NC(C(F)(F)F)=C21 (configuration not stated) [US20250313563, Compound 945531]
[1]
  IC50: < 100 nM
[2]
  IC50: < 100 nM and 100 to 1000 nM

## C[C@H]1CC[C@@]2(C1)C1=C(N=NC1)NC1=C2C(=O)CC(C)(C)C1 [US20250313563, Compound 883840]
[1]
  IC50: 100 to 1000 nM
[2]
  IC50: 100 to 1000 nM

## CCn1ccc(S(=O)(=O)N2CCC3(CC2)C2=C(N=NC2)NC2=C3C(=O)CC(C)(C)C2)n1 [US20250313563, Compound 945671]
[1]
  IC50: < 100 nM
[2]
  IC50: < 100 nM

## CC[C@]1(c2cccc(-c3ccnc(C)c3)c2)C2=C(CC(C)(C)NC2=O)NC2N=NC(Cl)=C21 (some centres not stated) [US20250313563, Compound 949421]
[1]
  IC50: 100 to 1000 nM
[2]
  IC50: > 5000 nM

## CC[C@@]1(c2cccc(-c3ccncc3C)c2)C2=C(CC(C)(C)CC2=O)NC2N=NC(C)=C21 (some centres not stated) [US20250313563, Compound 913022]
[1]
  IC50: 100 to 1000 nM
[2]
  IC50: 1000 to 5000 nM

## CC(C)[C@H]1C[C@@]2(CCO1)C1=C(N=NC1)NC1=C2C(=O)CC(C)(C)C1 [US20250313563, Compound 884014]
[1]
  IC50: 1000 to 5000 nM
[2]
  IC50: > 5000 nM

## CCC1(c2cccc(N(c3cccnc3)C(C)C)c2)C2=CN=NC2NC2=C1C(=O)CC(C)(C)C2 (configuration not stated) [US20250313563, Compound 885344]
[1]
  IC50: < 100 nM
[2]
  IC50: < 100 nM

## CC[C@@]1(c2cccc(S(C)(=O)=O)c2)C2=CN=NC2NC2=C1C(=O)NC(C)(C)C2 (some centres not stated) [US20250313563, Compound 945604]
[1]
  IC50: < 100 nM
[2]
  IC50: < 100 nM

## CC[C@]1(c2cccc(-c3cc(C)nn3C)c2)C2=CN=NC2NC2=C1C(=O)CC(C)(C)C2 (some centres not stated) [US20250313563, Compound 946000]
[1]
  IC50: > 5000 nM
[2]
  IC50: > 5000 nM

## CC[C@H]1CCN1c1cccc([C@]2(CC)C3=CN=NC3NC3=C2C(=O)CC(C)(C)C3)c1 (some centres not stated) [US20250313563, Compound 911972]
[1]
  IC50: 1000 to 5000 nM
[2]
  IC50: > 5000 nM

## CC1(C)CC(=O)C2=C(NC3=C(CN=N3)C23CCN(S(=O)(=O)c2cccc(C(F)(F)F)c2)CC3)[C@@H]1F [US20250313563, Compound 951703]
[1]
  IC50: < 100 nM and 100 to 1000 nM
[2]
  IC50: < 100 nM and 1000 to 5000 nM

## CC[C@]1(c2cccc(S(=O)(=O)C(C)C)c2)C2=CN=NC2NC2=C1C(=O)CC(C)(C)C2 (some centres not stated) [US20250313563, Compound 913134]
[1]
  IC50: 100 to 1000 nM
[2]
  IC50: 1000 to 5000 nM

## CC[C@]1(c2cccc(C3=C4CC=C(F)C=C4N=CC3)c2)C2=CN=NC2NC2=C1C(=O)NC(C)(C)C2 (some centres not stated) [US20250313563, Compound 948519]
[1]
  IC50: > 5000 nM
[2]
  IC50: > 5000 nM

## CC[C@]1(c2cccc(C(C)C)c2)C2=C(CC(C)(C)NC2=O)NC2N=NC(C)=C21 (some centres not stated) [US20250313563, Compound 949649]
[1]
  IC50: < 100 nM and 100 to 1000 nM
[2]
  IC50: < 100 nM and 1000 to 5000 nM

## CCn1ccc(S(=O)(=O)N2CCC3(CC2)C2=CN=NC2NC2=C3C(=O)NC(C)(C)C2)n1 (configuration not stated) [US20250313563, Compound 947836]
[1]
  IC50: < 100 nM
[2]
  IC50: 100 to 1000 nM

## CC[C@@]1(c2cccc(S(=O)(=O)C(C)C)c2)C2=C(CC(C)(C)NC2=O)NC2N=NC(C(F)(F)F)=C21 (some centres not stated) [US20250313563, Compound 948423]
[1]
  IC50: < 100 nM
[2]
  IC50: 100 to 1000 nM

## CCC1(c2cccc(-c3ccncc3)c2)C2=CN=NC2NC2=C1C(=O)CC(C)(C)C2 (configuration not stated) [US20250313563, Compound 791271]
[1]
  IC50: < 100 nM
[2]
  IC50: 100 to 1000 nM

## CC[C@@]1(c2cccc(-c3cncn3C)c2)C2=CN=NC2NC2=C1C(=O)CC(C)(C)C2 (some centres not stated) [US20250313563, Compound 945605]
[1]
  IC50: < 100 nM
[2]
  IC50: < 100 nM

## CC1(C)CC(=O)C2=C(C1)NC1=C(CN=N1)C21CN(S(=O)(=O)C2CCCCC2)C1 [US20250313563, Compound 918275]
[1]
  IC50: < 100 nM
[2]
  IC50: < 100 nM

## CC[C@]1(c2cccc(-c3cc(C)nc(C)c3)c2)C2=CN=NC2NC2=C1C(=O)CC(C)(C)C2 (some centres not stated) [US20250313563, Compound 913222]
[1]
  IC50: < 100 nM
[2]
  IC50: 100 to 1000 nM

## COc1ccc(C)c(S(=O)(=O)N2CCC3(CC2)C2=C(N=NC2)NC2=C3C(=O)CC(C)(C)C2)c1 [US20250313563, Compound 947245]
[1]
  IC50: < 100 nM
[2]
  IC50: 100 to 1000 nM

## CC[C@@]1(c2cccc(OC)c2)C2=C(CC(C)(C)CC2=O)NC2N=NC(C(F)(F)F)=C21 (some centres not stated) [US20250313563, Compound 884117]
[1]
  IC50: < 100 nM
[2]
  IC50: < 100 nM and 100 to 1000 nM

## CC1(C)CC(=O)C2=C(C1)NC1=C(CN=N1)[C@@]21CCCC(C)(C)C1 [US20250313563, Compound 883846]
[1]
  IC50: 100 to 1000 nM
[2]
  IC50: 1000 to 5000 nM
